Converted amounts (≈) assume the structure as drawn. Where two headings read alike, the source gives them in different places.

Data set [1] is described as follows: Cytotoxicity (MTT) against 3T3 cell line. Type of data set: cell-based, mouse. As to conditions: pure compounds; mouse fibroblast, 48 h; read-out: 3T3 Cell line CC50 (μM± SD). On the procedure:
(§1) The cytotoxicity of the test compounds against normal cell lines was evaluated through MTT (3-[4, 5-dimethylthiazole-2-yl]-2, 5-diphenyl-tetrazolium bromide] colorimetric assay in 96-well flat-bottomed microplates. The 3T3 (mouse fibroblast) and BJ (human fibroblast) were cultured Dulbecco’s Modified Eagle Medium, supplemented with 5% of fetal bovine serum (FBS), 100 IU/mL of penicillin and 100 μg/mL of streptomycin in 75 cm2 flasks, and then incubated in 5% CO2 incubator at 37°C. The growing cells were counted by using a haemocytometer, and diluted with the particular medium. The 5x10^4 cells/mL of the cell culture was prepared, and a sample […] was introduced into each well. The medium was removed after overnight incubation, and 200 μL of fresh medium was added with different concentrations of compounds (1–30 μM). After 48 hours, 200 μL MTT (0.5 mg/mL) was added, and the incubation was further continued for 4 hrs. After that time, 100 μL of DMSO was added to each well. The absorbance was measured using a micro plate reader (Spectra Max Plus, Molecular Devices, CA, USA) at 570 nm for the extent of MTT reduction to formazan within the cells. The cytotoxicity was recorded as CC50 against cells by using Soft- Max Pro software. Doxorubicin and cycloheximide were used as positive control. The experiments were run in triplicate.

The subject of data set [2] is 3T3 (mouse fibroblast) cells. Briefly: Cytotoxicity (MTT) against 3T3 cell line. Format: cell-based. As to conditions: for IC50: Mus musculus, Fibroblast, cytotoxicity of compounds 1-9, read-out: 3T3 (mouse fibroblast) IC50 (μM ± SD); for L. tropica SI (CC50/ IC50): CC50 3T3 cell line / IC50 L. tropica. As for the experimental part:
as §1

The nature of data set [3]: Cytotoxicity (MTT) against BJ cell line. Type of data set: cell-based, human. The following applies: pure compounds; human fibroblast, 48 h; read-out: BJ cell line CC50 (μM± SD). As for the experimental part: as §1, with “The medium was removed after overnight incubation, and 200 μL of fresh medium was added with different concentrations of compounds (1–30 μM).” left out

For data set [4], the system named is BJ (human fibroblast) cells. Briefly: Cytotoxicity (MTT) against BJ cell line. Format: cell-based. The following applies: for IC50: Homo sapiens, Fibroblast, cytotoxicity of compounds 1-9, read-out: BJ (human fibroblast) IC50 (μM± SD). On the procedure: as §1, with “The medium was removed after overnight incubation, and 200 μL of fresh medium was added with different concentrations of compounds (1–30 μM).” left out

Another data set concerns L. major promastigotes. Kind of data set: Promastigote growth inhibition assay (MTT), L. major. Type of data set: cell-based, Leishmania major. The following applies: for anti-leishmanial activity against promastigotes of L. major (in words): in vitro; for IC50: Leishmania major, read-out: L. major IC50 (μM± SD). As for the experimental part:
(§2) L. major and L. tropica (Clinical isolates) promastigotes were grown at […] in RPMI-1640 (Sigma) medium containing 10% of heat-inactivated (56°C for 30 min) fetal bovine serum. Cell viability was initially evaluated by wet mount method by observing the live cells under compound microscope. Parasite growth was assessed by counting live / motile promastigotes in a Neubauer chamber. Viable cell count was used for the further experimentations (treatments).
(§3) The promastigotes in their log phase were used in 96-well plates. 1 × 10^6 wild-type and resistant promastigotes were dispensed in 96 96-well plates, and incubated with tested compounds at a range concentration of 200–10 μM at 27°C for 72 h. After incubation of 72 h, MTT dye (3-(4,5-dimethylthiazol-2-yl)-2,5-diphenyl-2H-tetrazolium bromide) was added and further incubate it for 3–4 h. Amphotericin B, pantamidine and miltefosine were used as the positive control, untreated promastigotes were used as negative control moreover DMSO control was also added in the study as a stock solution of the compounds that were prepared in DMSO. All the experiments were performed in triplicates. After completion of the experiment the absorbance by Multiskan ascent plate reader at 452 nm and percent inhibition was calculated by the following formula.
(§4) Cytotoxic concentration (%) = [100- (Absorbance of test)/ (Absorbance of solvent control) ×100] %.

In the next data set the test system is L. tropica promastigotes. Kind of data set: Promastigote growth inhibition assay (MTT), L. tropica clinical isolates. Type of data set: cell-based, Leishmania tropica. As to conditions: for IC50: Leishmania tropica, read-out: L. tropica IC50 (μM± SD). On the procedure: as §2, §3, §4
Data set [5] concerns MIL-resistant L. tropica promastigotes. Kind of data set: Growth inhibition assay (MTT) against MIL-resistant line. Type of data set: cell-based, Leishmania tropica. The following applies: 72 h; for MIL Resistant L. tropica IC50 (μM± SD): miltefosine-unresponsive strain, promastigotes. On the procedure: as §3, §4
Promastigote cultures tL. tropica (Clinical isolates) were maintained at 26°C in RPMI-1640 medium containing 15% FBS and 1% penicillin–streptomycin mixture.
Generation of miltefosine-unresponsive strain was carried under high MIL pressure by in vitro passage with a stepwise increase in the MIL concentration. At each step, parasites were cultured and passaged every 3–4 days at an initial concentration of 5x10^5 promastigotes/mL in order to achieve -stable growth as compared to the wildtype isolate. Growth rates were measured for resistant populations and compared with the WT strain. Parasites were counted at an initial concentration of 5x10^5 parasites/mL and growth was measured daily using a Neubauer chamber until the population reached the stationary phase. Furthermore, the fluorescence microscopic investigations via DAPI stain were also carried out to supplement the study.

In data set [6] the test system is 3T3 (mouse fibroblast) cells. Briefly: Cytotoxicity (MTT) against 3T3 cell line. Format: cell-based. The following applies: cytotoxicity of extracts and fractions, read-out: 3T3 (mouse fibroblast) IC50 (μg/ml ± SD).
The subject of data set [7] is BJ (human fibroblast) cells. Briefly: Cytotoxicity (MTT) against BJ cell line. Format: cell-based. The following applies: cytotoxicity of extracts and fractions, read-out: BJ (human fibroblast) IC50 (μg/ml ± SD).
The mark [8] stands for this setting: pure compounds, standard drugs, promastigotes, 72 h.
[9] abbreviates: pure compounds, standard drugs, promastigotes, clinical isolate, 72 h.
Setting [10] is: CC50 3T3 mouse fibroblast cell line / IC50 L. major.
Where [11] appears, read: CC50 BJ fibroblast cell line / IC50 L. major.
Setting [12] is: CC50 3T3 mouse fibroblast cell line / IC50 L. tropica.
Where [13] appears, read: CC50 BJ fibroblast cell line / IC50 L. tropica.

As for `CCOC12CC=CC(=O)C1(C)C1CCC3(O)C(=O)OC4(C)C5CC6(C)C(COC7(OC34C6C7=O)C1CC2O)C(=O)O5` (stereo not drawn) [Compound 4, 5α-ethoxy-6ß-hydroxy-5,6-dihydrophysalin B], the CC50 in [1] stood at 19.6 ± 0.8 µM; in data set [3], 14.2 ± 0.8 µM. Moreover, the IC50 in data set [2] was 19.6 ± 0.8 µM; in data set [4], below 50 µM; in [5] (Leishmania tropica, read-out: MIL Resistant L. tropica IC50 (μM± SD)), 74.7 ± 0.81 µM. Further, in the data set on L. major promastigotes, the “anti-leishmanial activity against promastigotes of L. major (in words)” value is on record as “no significant activity”. Moreover, in the data set on L. major promastigotes (setting [8]), the “L. major IC50 (μM± SD)” value is “Inactive”. Also, the “L. tropica IC50 (μM± SD)” value in the data set on L. tropica promastigotes (setting [9]) is reported as “Inactive”.
In the case of `CC12CC3OC(=O)C1COC14OC5(C2C1=O)C(O)(CCC1C4CC(O)C2(Cl)CC=CC(=O)C12C)C(=O)OC35C` (stereo not shown) [Compound 5, Physalin H], the CC50 came out at 0.4 ± 0.07 µM in [1] and 10.4 ± 1 µM in [3]. Further, the “L. tropica SI (CC50/ IC50)” value in data set [2] is recorded as 0.041; in data set [4] (CC50 BJ cell line / IC50 L. tropica), 1.08; in the data set on L. tropica promastigotes (setting [12]), 0.041; with L. tropica promastigotes (setting [13]), 1.08. For the same compound, the IC50 in data set [2] is 0.4 ± 0.07 µM; in data set [4], 14.2 ± 0.8 µM; in the data set on L. major promastigotes (setting [8]), 3.34 ± 0.64 µM; with L. tropica promastigotes (setting [9]), 9.59 ± 0.27 µM. Moreover, the “L. major SI (CC50/ IC50)” value in the data set on L. major promastigotes (setting [10]) is 0.119; in the data set with L. major promastigotes (setting [11]) it was 3.11. For the same compound, the “MIL Resistant L. tropica IC50 (μM± SD)” value in data set [5] is “inactive”.
Turning to `C=C1C(=O)OC2CC1(C)C1C(=O)C3(O)OC14C(O)(CCC1C3CC3OC35CC=CC(=O)C15C)C(=O)OC24C` (stereo not drawn) [Compound 6, 5β, 6β-epoxyphysalin C], the values for the CC50 in data set [1] and in [3] were 0.6 ± 0.04 µM and above 100 µM, respectively. For the same compound, the “L. tropica SI (CC50/ IC50)” value in data set [2] came to 0.025; in the data set with L. tropica promastigotes (setting [12]), 0.025; in the data set on L. tropica promastigotes (setting [13]), 4.20. Besides, the IC50 in data set [2] is 0.6 ± 0.04 µM; in data set [4], 10.4 ± 1 µM; in the data set on L. major promastigotes (setting [8]), 84.8 ± 1.56 µM; in the data set with L. tropica promastigotes (setting [9]), 23.8 ± 1.1 µM. The “L. major SI (CC50/ IC50)” value in [4] (CC50 BJ cell line / IC50 L. major) was found to be 1.19; in the data set on L. major promastigotes (setting [10]), 0.007; in the data set with L. major promastigotes (setting [11]), 1.19. Further, in the data set on L. major promastigotes, the “anti-leishmanial activity against promastigotes of L. major (in words)” value is “no significant activity”. For the same compound, the “MIL Resistant L. tropica IC50 (μM± SD)” value in [5] is “inactive”.
Consider `COc1cccc2c1C(=O)c1c(O)c3c(c(O)c1C2=O)C[C@@](O)(C(=O)CO)C[C@@H]3O[C@H]1C[C@H](N)[C@H](O)[C@H](C)O1` [Doxorubicin], for which the IC50 in data set [6] and in data set [7] was 0.1 ± 0.02 µg/mL (≈ 0.184 µM) in each case.

Broadly, the CC50 is the concentration giving 50% cytotoxicity.
